Here are results for four molecules from publication PMC11978698, “Differential uptake of arginine derivatives by the human heteromeric amino acid transporter b^0,+AT-rBAT (SLC7A9-SLC3A1)” (Naunyn-Schmiedeberg's Archives of Pharmacology, 2024).

Data set [1] addresses T1, b0,+AT (SLC7A9), in the heteromeric transporter b0,+AT-rBAT (Homo sapiens, UniProt P82251).
T1 sequence (P82251 1-487): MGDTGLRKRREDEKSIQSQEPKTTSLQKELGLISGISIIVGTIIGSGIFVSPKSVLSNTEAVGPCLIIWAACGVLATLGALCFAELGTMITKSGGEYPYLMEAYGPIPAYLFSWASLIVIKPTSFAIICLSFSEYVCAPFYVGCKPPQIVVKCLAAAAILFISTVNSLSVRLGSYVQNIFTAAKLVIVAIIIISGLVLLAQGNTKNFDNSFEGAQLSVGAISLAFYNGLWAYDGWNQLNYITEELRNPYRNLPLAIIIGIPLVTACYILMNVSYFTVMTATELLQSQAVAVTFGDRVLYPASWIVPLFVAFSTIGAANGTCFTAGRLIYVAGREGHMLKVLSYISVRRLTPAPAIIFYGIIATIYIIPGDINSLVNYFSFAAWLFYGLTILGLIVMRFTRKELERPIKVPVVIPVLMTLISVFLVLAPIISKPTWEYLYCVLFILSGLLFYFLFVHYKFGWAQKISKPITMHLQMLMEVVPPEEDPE
T1 sequence (Q07837 1-685 partner): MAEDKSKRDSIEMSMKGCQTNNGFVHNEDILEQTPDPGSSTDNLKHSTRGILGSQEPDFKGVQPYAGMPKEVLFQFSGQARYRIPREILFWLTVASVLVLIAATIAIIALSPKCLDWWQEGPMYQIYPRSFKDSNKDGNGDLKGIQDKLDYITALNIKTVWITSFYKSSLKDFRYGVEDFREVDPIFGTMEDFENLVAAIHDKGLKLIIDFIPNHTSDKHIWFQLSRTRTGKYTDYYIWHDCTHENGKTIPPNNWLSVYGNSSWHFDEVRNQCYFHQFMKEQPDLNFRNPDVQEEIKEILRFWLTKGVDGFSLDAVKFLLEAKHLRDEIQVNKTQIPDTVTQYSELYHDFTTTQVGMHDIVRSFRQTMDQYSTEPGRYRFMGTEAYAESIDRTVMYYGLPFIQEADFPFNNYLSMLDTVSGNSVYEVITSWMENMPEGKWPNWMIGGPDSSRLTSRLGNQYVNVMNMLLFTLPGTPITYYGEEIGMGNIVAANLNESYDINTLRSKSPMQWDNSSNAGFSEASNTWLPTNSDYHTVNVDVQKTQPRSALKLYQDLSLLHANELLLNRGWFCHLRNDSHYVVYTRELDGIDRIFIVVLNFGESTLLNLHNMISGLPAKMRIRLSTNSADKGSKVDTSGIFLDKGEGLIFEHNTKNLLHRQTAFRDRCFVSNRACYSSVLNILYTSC
The data set can be described thus: cell-based.

In data set [2] the target is T1, b0,+AT (SLC7A9), in the heteromeric transporter b0,+AT-rBAT. The data set can be described thus: inhibition of radiolabeled L-arginine ([…]), L-homoarginine and ADMA uptake by […] L-cystine in double-transfected MDCK cells. It is filed as cell-based. More on the design: human b0,+AT (NM_001126335) co-expressed with human rBAT (NM_000341.3) in MDCKII cells; with rBAT (SLC3A1).

Data set [3] has the same target. Particulars: read-out: radiolabeled uptake in double-transfected MDCK cells, not saturated up to 4000 μ.
Substrate in data set [4]: N=C(N)NCCCC[C@H](N)C(=O)O
The data set is described as follows: cells, lysate or membranes.

Usually IC50 stands for the concentration that gives 50% inhibition. Lower therefore signals higher potency.

Consider `N=C(N)NCCC[C@H](N)C(=O)O` [L-arginine], for which the IC50 in data set [1] is 116 µM.
As to `N[C@@H](CSSC[C@H](N)C(=O)O)C(=O)O` [L-cystine], the “inhibition of radiolabeled L-arginine (100 μM), L-homoarginine and ADMA uptake b” value in data set [2] is “the uptake of L-homoarginine (Fig. 9c) and ADMA (Fig. 9d) was significantly inhibited at the low tested concentrations”.
As to `CN(C)C(=N)NCCC[C@H](N)C(=O)O` [asymmetric dimethylarginine], the Km in data set [3] was more than 4000 µM.

B1: b0,+AT (SLC7A9), in the heteromeric transporter b0,+AT-rBAT (Homo sapiens) (protein)
chain: T1 sequence (P82251 1-487)
For B1, the Km in data set [4] worked out at 197.0 µM.
